Reference: the supplement of paper PMC10307832

How the values were obtained:
Experiment in all cases: relative viability (nuclei count vs DMSO), 5 days (fraction); higher = more cells survive
Kobe2602 + Alpelisib = compound: C1=CC(=CC=C1NC(=S)NNC2=C(C=C(C=C2[N+](=O)[O-])C(F)(F)F)[N+](=O)[O-])F [Kobe2602] + Cc1nc(NC(=O)N2CCC[C@H]2C(N)=O)sc1-c1ccnc(C(C)(C)C(F)(F)F)c1 [Alpelisib] (partner 2 µM)
Outline: (§1)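 Relative viability equals treated-well nuclei counts divided by vehicle-well nuclei counts. Counts came from 4× images of lung cancer cell lines grown in 1536-well plates for 5 days after pin-tool dosing on the day after seeding. Dosing used one drug alone or a fixed anchor-drug dose plus five library-drug doses (not always all listed) in √10 steps, and values are medians of duplicate plates.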

[1] = compound: COc1cc2nccc(Oc3ccc(NC(=O)C4(C(=O)Nc5ccc(F)cc5)CC4)cc3)c2cc1OC [Cabozantinib] + CC(=O)Nc1cccc(-n2c(=O)n(C3CC3)c(=O)c3c(Nc4ccc(I)cc4F)n(C)c(=O)c(C)c32)c1 [Trametinib] (partner 0.02 µM)
Outline: as §1

[2] = compound: COc1cc2nccc(Oc3ccc(NC(=O)C4(C(=O)Nc5ccc(F)cc5)CC4)cc3)c2cc1OC [Cabozantinib] + O=C(CCCCCCC(=O)Nc1ccccc1)NO [Vorinostat] (partner 1 µM)
Outline: as §1

Zosuquidar + Dasatinib = compound: O[C@@H](COc1cccc2ncccc12)CN1CCN([C@@H]2c3ccccc3[C@@H]3[C@H](c4ccccc42)C3(F)F)CC1 [Zosuquidar] + Cc1nc(Nc2ncc(C(=O)Nc3c(C)cccc3Cl)s2)cc(N2CCN(CCO)CC2)n1 [Dasatinib] (partner 0.075 µM)
Outline: as §1

Cell Line	relative viability (Kobe2602 + Alpelisib; first compound 0.2 µM)	relative viability (Kobe2602 + Alpelisib; first compound 0.6325 µM)	relative viability (Kobe2602 + Alpelisib; first compound 2 µM)	relative viability (Kobe2602 + Alpelisib; first compound 6.325 µM)	relative viability (Kobe2602 + Alpelisib; first compound 20 µM)	relative viability ([1]; first compound 0.02 µM)	relative viability ([1]; first compound 0.06325 µM)	relative viability ([1]; first compound 0.2 µM)	relative viability ([1]; first compound 0.6325 µM)	relative viability ([1]; first compound 2 µM)	relative viability ([2]; first compound 0.02 µM)	relative viability ([2]; first compound 0.06325 µM)	relative viability ([2]; first compound 0.2 µM)	relative viability ([2]; first compound 0.6325 µM)	relative viability ([2]; first compound 2 µM)	relative viability (Zosuquidar + Dasatinib; first compound 0.01 µM)	relative viability (Zosuquidar + Dasatinib; first compound 0.03162 µM)	relative viability (Zosuquidar + Dasatinib; first compound 0.1 µM)	relative viability (Zosuquidar + Dasatinib; first compound 0.3162 µM)	relative viability (Zosuquidar + Dasatinib; first compound 1 µM)
NCI-H2009	1.12	1.22	1.13	1.3	1.18	0.276	0.281	0.293	0.275	0.24	0.701	0.855	0.744	0.809	0.748	0.281	0.174	0.244	0.331	0.284
HCC-827	0.951	0.875	0.951	0.936	1.07	0.529	0.586		0.504	0.476	0.837	1.05		0.785	0.526	0.293	0.348	0.237	0.272	0.351
NCI-H838	0.909	1.01	0.915	1	0.976	0.487	0.533	0.496	0.51	0.498	0.744	0.765	0.713	0.665	0.667	0.321	0.26		0.336	0.35
CAL-12T	0.92	1.39	0.67	0.981	1.19	0.331	0.357	0.33	0.371	0.365	0.849	0.673	0.801	0.822	0.833	0.355	0.397	0.38	0.606	0.443
RERF-LC-KJ	0.829	0.792	0.742	0.865	0.779	0.948	0.815	0.781	0.811	0.928	0.65	0.768	0.666	0.801	0.75	0.729	0.859	0.896	0.74	0.782
NCI-H2347	0.972	1.01	0.969	1.08	1.09	0.252	0.296	0.269	0.249	0.268	0.525	0.525	0.627	0.469	0.391	0.321	0.384	0.253	0.309	0.351
PC-14	0.822	0.948	0.863	0.962	0.989	0.81	0.955		0.755	0.685	0.691	0.956		0.692	0.748	0.271	0.223	0.341	0.303	0.284
HCC-366	0.364	0.493	0.309	0.429	0.496	0.409	0.334	0.35	0.285	0.272	0.309	0.381	0.374	0.378	0.429	0.608	0.468	0.496	0.767	0.704
LCLC-97TM1	0.26	0.26	0.228	0.202	0.262	0.197	0.236	0.214	0.212	0.19	0.24	0.823	0.739	0.781	0.751	0.776	0.756	0.73	0.761	0.898
A-427	1.11	1.12	1.06	1.05	1.1	0.729	0.801	0.772	0.762	0.743	0.871	0.865	0.902	0.841	0.951	0.603	0.684	0.634	0.709	0.8
NCI-H23	0.669	0.863	0.68	0.829	0.811		0.358	0.42	0.377	0.389		0.794	0.553	0.631	0.551	0.713	0.811	0.739	0.983	0.806
NCI-H520	0.912	1.12	0.848	0.84	0.859	0.699	0.83	0.808	0.73	0.538	0.719	0.64	0.715	0.598	0.688	0.224	0.156		0.254	0.189
NCI-H1395	1.05	1.29	1.09	1.14	1.03	0.981	1.18	1.09	1.06	0.938	0.623	0.831	0.703	0.685	0.656	0.404	0.378	0.307	0.406	0.431
NCI-H2085	1.04	0.99	0.894	1.01	1.05	0.876	0.6	0.571	0.463	0.398	0.851	0.92	0.725	0.797	0.74	0.247	0.234	0.19	0.243	0.228
NCI-H661	0.565	0.644	0.738	0.661	0.955	0.542	0.653	0.579	0.572	0.605	0.783	0.856	0.879	0.809	0.935	0.812	0.756	0.922	1.03	0.865
NCI-H1944	0.803	0.884	0.885	0.805	0.944	0.441	0.401	0.386	0.416	0.413	0.615	0.617	0.527	0.582	0.637	0.206	0.159	0.187	0.244	0.229
